Data: PubChem BioAssay (NCI)
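Compound exposure: 48 hours, 5 concentrations, 96-well plates. GI50 = concentration required for 50% inhibition of growth. TGI is the concentration that stops growth completely.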

Legend:
Assay in all cases: inhibition of tumour cell growth, NCI panel, 48 h
OVCAR-4 ovarian = test system: OVCAR-4 ovarian
RPMI-8226 leukemia = test system: RPMI-8226 leukemia
HCC-2998 colon = test system: HCC-2998 colon
SK-OV-3 ovarian = test system: SK-OV-3 ovarian
UO-31 renal = test system: UO-31 renal
SF-539 CNS = test system: SF-539 CNS
NCI-H460 lung = test system: NCI-H460 lung
EKVX NSCLC = test system: EKVX NSCLC

| SMILES | GI50 (OVCAR-4 ovarian) [µM] | TGI (OVCAR-4 ovarian) [µM] | GI50 (RPMI-8226 leukemia) [µM] | TGI (RPMI-8226 leukemia) [µM] | GI50 (HCC-2998 colon) [µM] | TGI (HCC-2998 colon) [µM] | GI50 (SK-OV-3 ovarian) [µM] | TGI (SK-OV-3 ovarian) [µM] | GI50 (UO-31 renal) [µM] | TGI (UO-31 renal) [µM] | GI50 (SF-539 CNS) [µM] | TGI (SF-539 CNS) [µM] | GI50 (NCI-H460 lung) [µM] | TGI (NCI-H460 lung) [µM] | GI50 (EKVX NSCLC) [µM] | TGI (EKVX NSCLC) [µM] |
| --- | --- | --- | --- | --- | --- | --- | --- | --- | --- | --- | --- | --- | --- | --- | --- | --- |
| OC(COc1cccc2ccccc12)CN1CCN(c2ccccc2Cl)CC1 (stereo unspecified) | 12.6 | 25.8 | 13.2 | 38.3 | 14.8 | 29.3 | 16.8 | 37.8 | 4.17 | 18.7 | 16.5 | 32.8 | 12.8 | 29 | 12.9 | 31.7 |
| COc1ccc2c(c1)CC[C@@H]1[C@@H]2CC[C@]2(C)C=C(/C=C/C(=O)c3ccccc3)C[C@@H]12 | 16.2 | 31.6 | 24.3 | 54.4 | 16.2 | 31.2 | 20.8 | 38.9 | 15.2 | 30.1 | 17.4 | 32.4 | 17.2 | 35.4 | 17.7 | 32.3 |
| CC1(C)[C@@H](OC(N)=O)C=C[C@]2(C=O)[C@H]3CC[C@]4(C)[C@@H](c5ccc(=O)oc5)[C@@H](Cl)C[C@]4(O)C3=CC[C@@H]12 | 0.004 | 0.0121 | 0.00719 | 0.023 | 0.0081 | 0.0304 | 0.00653 | 0.0194 | 0.00524 | 0.0124 | 0.00442 | 0.00848 | < 0.0025 | 0.0048 | 0.00415 | 0.0102 |
| Cc1c(C(=O)O[C@H]2[C@@H]3[C@H](C)CC[C@H]3[C@]3(C)O[C@@]2(C2CCCCC2)C[C@H]3OC(=O)CO)ccc2ccccc12 | 7.6 | 14.3 | 8.89 | 20.6 | 8.09 | 15.8 | 9.19 | 17.1 | 0.408 | 7.96 | 7.65 | 14.9 | 7.87 | 16.6 | 6.94 | 14.2 |
| CCOC(=S)SCN1C(=O)c2ccccc2S1(=O)=O | 1.67 | 3.87 | 12.8 | 38.2 | 16.2 | 29.8 | 32.1 | > 100 | 14.3 | 29.4 | 24.7 | 58.5 | 45.4 | > 100 | 19.7 | 36.6 |
| CCCn1c(N)c(C(=O)CNc2ccc(I)cc2)c(=O)[nH]c1=O | > 100 | > 100 | 0.51 | > 100 | 4.23 | > 90.6 | > 100 | > 100 | – | > 100 | 0.84 | > 45.6 | 0.393 | > 100 | > 64.3 | > 100 |
| COc1ccc(/C=N/N=C(\[O-])c2ccncc2)cc1F.COc1ccc(/C=N\N=C(/[O-])c2ccncc2)cc1F.[Cu+2] | 18.5 | 34.5 | 40.1 | > 100 | 32.9 | > 100 | 11.8 | 24.1 | 64.4 | > 100 | 17.8 | 37.1 | 13.6 | 26.5 | 24.3 | 76.3 |
